This is an account of results in article PMC10121968, “Fosgonimeton, a Novel Positive Modulator of the HGF/MET System, Promotes Neurotrophic and Procognitive Effects in Models of Dementia” (Neurotherapeutics, 2022).

Series [1] is described as follows: Simulated intestinal and gastric fluid stability. The following applies: 1 h, 5 µM, 37 °C. Format: in vitro ADME. The protocol:
Simulated intestinal and gastric fluid studies were contracted to Quintara Discovery Inc, Hayward, California. Simulated intestinal fluid was freshly prepared with 8.7 mM NaOH, 28.65 mM NaH2PO4, 5.85 mM NaCl, with a final pH of 6.8. […] was added to a final concentration of 0.32%. Simulated gastric fluid was prepared with 34.2 mM NaCl. The pH was adjusted to 1.2, and […] was added to a final concentration of 1%. Fosgo-AM was added to the simulated fluids to achieve a concentration of 5 µM. After mixing, samples were transferred to 96-well plates in duplicate (25 μL/well) and incubated at 37 °C. At time 0, 1, 2, and 4 h, 150 μL quench solution (100% acetonitrile with 0.1% formic acid) and bucetin internal standard was added to the appropriate wells. Plates were sealed and centrifuged at 4 °C for 15 min at 4000 rpm. The supernatant was transferred to fresh plates for liquid chromatography/[…] mass spectrometry (LC/MS/MS) analysis. The extent of metabolism was calculated as the disappearance of the test compound compared with the time = 0 incubations.

A further series concerns TNF-α. Kind of series: TNF-α release in LPS-challenged THP-1 macrophages (ELISA). It is filed as cell-based, human. Conditions: 1 µM, 20 min pretreatment, LPS 50 ng/mL 24 h, vs LPS + vehicle. The protocol:
To determine the effect of fosgo-AM on LPS-induced cytokine release, we sought to determine the levels of interleukin-1β (IL-1β), interleukin-6 (IL-6), and tumor necrosis factor-α (TNF-α) in LPS-challenged THP-1–differentiated macrophages in the presence and absence of fosgo-AM. THP-1 monocytes were grown at 37 °C, 5% CO2 in Roswell Park Memorial Institute (RPMI) medium + 10% FBS until approximately 80% confluent. Cells were seeded in polystyrene-treated 96-well cell culture plates at approximately 50,000 cells/well in 100-µL complete media. 100 µL Phorbol myristate acetate was then added to each well for a final concentration of 100 ng/mL. The plate was then incubated for 3 days at 37 °C, 5% CO2 to prime the monocytes into macrophages. […] For cytokine quantification, cell culture supernatant was assayed by HTRF kits to assess levels of IL-1β (Human IL-1β kit, #62HIL1BPEG, Cisbio, Codolet, France) and IL-6 (Human IL-6 kit, 62HIL06PET, Cisbio, Codolet, France), and by ELISA (Human TNF-α ELISA kit, KHC3011, ThermoFisher, Waltham, Massachusetts) to determine the levels of TNF-α. […] Fluorescence emission at 2 different wavelengths (665 nm and 620 nm) were measured on an Envision plate reader (PerkinElmer, Waltham, Massachusetts), and HTRF ratio of the acceptor and donor emission signals for each well was calculated as follows: HTRF ratio = (665 nm/620 nm) × 10,000. […]
On the technique in general: An ELISA detects its analyte on a solid surface through an enzyme-linked reagent.

Each structure is given as a SMILES string. Non-standard residues stand in square brackets, D forms with d. Residues, ends and D or L forms follow the SMILES beside them. *: point of attachment. Hexanoyl = CCCCCC(=O)*; Ahx = NCCCCCC(=O)O

On to `CCCCCC(=O)N[C@@H](Cc1ccc(O)cc1)C(=O)N[C@H](C(=O)NCCCCCC(N)=O)[C@@H](C)CC` [fosgo-AM] (Hexanoyl-Tyr-Ile-[Ahx]-NH2), for which the values for the remaining after exposure in series [1] (simulated gastric fluid) and in series [1] (simulated intestinal fluid) were 7.8% and 0.1%, respectively. Further, the TNF-α release result with TNF-α is listed as “significant decrease”.
